According to ChEMBL document CHEMBL5550164, “Enhancing anticancer treatment: Development of cRGD-Conjugated F-OH-Evo prodrugs for targeted delivery” (Bioorg Med Chem, 2024):
Active and inactive are the calls of the source. The calls are words filed in the database; no cut-off is given here.

How the values were obtained:
HeLa = experiment: Cytotoxicity against human HeLa cells measured after 72 hrs by CCK8 assay; type: functional, cell-based
U-87 MG [1] = experiment: Cytotoxicity against human U87 cells measured after 72 hrs by CCK8 assay; type: functional, cell-based, U-87MG ATCC
MCF7 = experiment: Cytotoxicity against human MCF7 cells measured after 72 hrs by CCK8 assay; type: functional, cell-based; conditions: MCF7, 72 h
A549 = experiment: Cytotoxicity against human A549 cells measured after 72 hrs by CCK8 assay; type: functional, cell-based; conditions: A549, 72 h
[2] = Drug uptake in human MCF7 cells incubated for 24 hrs by confocal laser scanning microscopy; type: ADME, cell-based; conditions: mcf7, 24 h
[3] = Drug uptake in human U87 cells incubated for 24 hrs by confocal laser scanning microscopy; type: ADME, cell-based; conditions: u-87mg atcc
[4] = Drug uptake in human U87 cells by flow cytometry analysis; type: ADME, cell-based; conditions: u-87mg atcc
[5] = Drug uptake in human U87 cells at 20 nM by flow cytometry analysis; type: ADME, cell-based; conditions: u-87mg atcc, 0.02 µM
U-87 MG [6] = experiment: Induction of cell cycle arrest at G2 phase in human U87 cells at 25 nM incubated for 24 hrs by flow cytometry analysis; type: functional, U-87MG ATCC
U-87 MG [7] = experiment: Potency index ratio of 3-fluoro-10-hydroxy-Evodiamine IC50 to test compound IC50 for cytotoxicity against human U87 cells; type: functional, U-87MG ATCC
[8] = molecular target: T1, DNA topoisomerase 1 (Homo sapiens) (UniProt P11387); experiment: Inhibition of topoisomerase 1 (unknown origin) mediated DNA relaxation using supercoiled pBR322 DNA as substrate incubated for 1 hr by EtBr staining based agarose gel electrophoresis method; conditions: dose 500-1000 µM
T1 sequence (whole entry): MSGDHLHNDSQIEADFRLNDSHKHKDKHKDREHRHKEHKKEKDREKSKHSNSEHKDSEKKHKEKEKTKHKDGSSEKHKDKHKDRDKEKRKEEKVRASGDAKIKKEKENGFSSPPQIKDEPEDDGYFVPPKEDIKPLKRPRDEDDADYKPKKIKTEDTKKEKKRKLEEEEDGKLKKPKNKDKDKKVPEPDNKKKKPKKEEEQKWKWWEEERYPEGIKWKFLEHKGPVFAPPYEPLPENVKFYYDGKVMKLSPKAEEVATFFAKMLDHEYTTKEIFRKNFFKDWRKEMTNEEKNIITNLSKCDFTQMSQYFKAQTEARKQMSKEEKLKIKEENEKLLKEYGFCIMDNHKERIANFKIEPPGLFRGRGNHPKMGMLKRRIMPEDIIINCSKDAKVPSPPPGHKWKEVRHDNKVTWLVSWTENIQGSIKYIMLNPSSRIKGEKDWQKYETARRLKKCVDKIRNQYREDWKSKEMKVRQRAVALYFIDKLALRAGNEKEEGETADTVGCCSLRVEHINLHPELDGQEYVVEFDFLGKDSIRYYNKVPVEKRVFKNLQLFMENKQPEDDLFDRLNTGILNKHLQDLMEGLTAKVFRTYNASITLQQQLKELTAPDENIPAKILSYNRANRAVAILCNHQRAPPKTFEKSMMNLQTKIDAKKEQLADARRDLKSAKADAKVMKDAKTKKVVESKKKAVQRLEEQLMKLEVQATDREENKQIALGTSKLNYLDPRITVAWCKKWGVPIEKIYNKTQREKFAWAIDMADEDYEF

U-87 MG [9] = experiment: Inhibition of cell migration in human U87 cells at 25 nM incubated for 48 hrs by transwell assay relative to control; type: functional, U-87MG ATCC
U-87 MG [10] = experiment: Inhibition of cell migration in human U87 cells at 25 nM after 16 hrs by scratch assay; type: functional, cell-based; conditions: U-87MG ATCC
U-87 MG [11] = experiment: Inhibition of colony formation in human U87 cells at 25 nM pretreated for 24 hrs followed by media replacement for every 3 days by crystal violet staining based assay; type: functional, cell-based; conditions: U-87MG ATCC
[12] = Stability in serum (unknown origin) assessed as compound remaining after 180 mins by HPLC analysis; type: ADME, cell-free; conditions: read-out: Stability

CN1c2ccc(F)cc2C(=O)N2CCc3c([nH]c4ccc(OC(=O)CSCC(=O)NCCCC[C@@H]5NC(=O)[C@H](Cc6ccccc6)NC(=O)[C@H](CC(=O)O)NC(=O)CNC(=O)[C@H](CCCNC(=N)N)NC5=O)cc34)C21 (stereo partly drawn)
IC50 (HeLa): 202 nM
IC50 (U-87 MG [1]): 83.6 nM
IC50 (MCF7): 109 nM
IC50 (A549): 54.1 nM

CN1c2ccc(F)cc2C(=O)N2CCc3c([nH]c4ccc(OC(=O)CCCC(=O)NC[C@@H]5NC(=O)[C@H](Cc6ccccc6)NC(=O)[C@H](CC(=O)O)NC(=O)CNC(=O)[C@H](CCCNC(=N)N)NC5=O)cc34)C21 (stereo partly drawn)
IC50 (HeLa): 302 nM
IC50 (U-87 MG [1]): 285 nM
IC50 (MCF7): 137 nM
IC50 (A549): 307 nM

CN1c2ccc(F)cc2C(=O)N2CCc3c([nH]c4ccc(OC(=O)CSCC(=O)NCC[C@@H]5NC(=O)[C@H](Cc6ccccc6)NC(=O)[C@H](CC(=O)O)NC(=O)CNC(=O)[C@H](CCCNC(=N)N)NC5=O)cc34)C21 (stereo partly drawn)
IC50 (HeLa): 53.7 nM
IC50 (U-87 MG [1]): 53 nM
IC50 (MCF7): 60.2 nM
IC50 (A549): 38.1 nM

CN1c2ccc(F)cc2C(=O)N2CCc3c([nH]c4ccc(O)cc34)[C@H]21
IC50 (HeLa): 93.4 nM
IC50 (U-87 MG [1]): 139 nM
IC50 (MCF7): 5.2 nM
IC50 (A549): 22.4 nM

CN1c2ccc(F)cc2C(=O)N2CCc3c([nH]c4ccc(OC(=O)CCCC(=O)NCCC[C@@H]5NC(=O)[C@H](Cc6ccccc6)NC(=O)[C@H](CC(=O)O)NC(=O)CNC(=O)[C@H](CCCNC(=N)N)NC5=O)cc34)C21 (stereo partly drawn)
IC50 (HeLa): 324 nM
IC50 (U-87 MG [1]): > 500 nM
IC50 (MCF7): 92.2 nM
IC50 (A549): 460 nM

CN1c2ccc(F)cc2C(=O)N2CCc3c([nH]c4ccc(OC(=O)CCCC(=O)NCCCC[C@@H]5NC(=O)[C@H](Cc6ccccc6)NC(=O)[C@H](CC(=O)O)NC(=O)CNC(=O)[C@H](CCCNC(=N)N)NC5=O)cc34)C21 (stereo partly drawn)
IC50 (HeLa): 359 nM
IC50 (U-87 MG [1]): 287 nM
IC50 (MCF7): 69.8 nM
IC50 (A549): 479 nM

CCN(CC)c1ccc2cc(C(=O)NCCCCCC(=O)NCCCCC(NC(=O)CSCC(=O)Oc3ccc4[nH]c5c(c4c3)CCN3C(=O)c4cc(F)ccc4N(C)C53)C(=O)NCCC[C@@H]3NC(=O)[C@H](Cc4ccccc4)NC(=O)[C@H](CC(=O)O)NC(=O)CNC(=O)[C@H](CCCNC(=N)N)NC3=O)c(=O)oc2c1 (stereo partly drawn)
Drug uptake [2]: Not Active
Drug uptake [3]: Active
Drug uptake [4]: Dose-Dependent Effect and Tde
Drug uptake [5]: 44.8%

CN1c2ccc(F)cc2C(=O)N2CCc3c([nH]c4ccc(OC(=O)CCSSCCC(=O)NCC[C@@H]5NC(=O)[C@H](Cc6ccccc6)NC(=O)[C@H](CC(=O)O)NC(=O)CNC(=O)[C@H](CCCNC(=N)N)NC5=O)cc34)C21 (stereo partly drawn)
IC50 (HeLa): > 500 nM
IC50 (U-87 MG [1]): 247 nM
IC50 (MCF7): 164 nM
IC50 (A549): > 500 nM

CN1c2ccc(F)cc2C(=O)N2CCc3c([nH]c4ccc(OC(=O)CCSSCCC(=O)NCCCC[C@@H]5NC(=O)[C@H](Cc6ccccc6)NC(=O)[C@H](CC(=O)O)NC(=O)CNC(=O)[C@H](CCCNC(=N)N)NC5=O)cc34)C21 (stereo partly drawn)
IC50 (HeLa): 197 nM
IC50 (U-87 MG [1]): 458 nM
IC50 (MCF7): 163 nM
IC50 (A549): 387 nM

CN1c2ccc(F)cc2C(=O)N2CCc3c([nH]c4ccc(OC(=O)CSCC(=O)NCCC[C@@H]5NC(=O)[C@H](Cc6ccccc6)NC(=O)[C@H](CC(=O)O)NC(=O)CNC(=O)[C@H](CCCNC(=N)N)NC5=O)cc34)C21 (stereo partly drawn)
Activity (U-87 MG [6]): >90%
Ratio IC50 (U-87 MG [7]): 5
IC50 (HeLa): 125 nM
IC50 (U-87 MG [1]): 29.9 nM
IC50 (MCF7): 83.2 nM
inhibition [8]: Dose-Dependent Effect
inhibition at 0.025 µM (U-87 MG [9]): 25.5%
IC50 (A549): 45.7 nM
inhibition (U-87 MG [10]): Active
inhibition (U-87 MG [11]): Active
remaining at 3 h [12]: 60%

CN1c2ccc(F)cc2C(=O)N2CCc3c([nH]c4ccc(OC(=O)CSCC(=O)NC[C@@H]5NC(=O)[C@H](Cc6ccccc6)NC(=O)[C@H](CC(=O)O)NC(=O)CNC(=O)[C@H](CCCNC(=N)N)NC5=O)cc34)C21 (stereo partly drawn)
IC50 (HeLa): 74.8 nM
IC50 (U-87 MG [1]): 130 nM
IC50 (MCF7): 30.6 nM
IC50 (A549): 51.5 nM

CN1c2ccc(F)cc2C(=O)N2CCc3c([nH]c4ccc(OC(=O)CCCC(=O)NCC[C@@H]5NC(=O)[C@H](Cc6ccccc6)NC(=O)[C@H](CC(=O)O)NC(=O)CNC(=O)[C@H](CCCNC(=N)N)NC5=O)cc34)C21 (stereo partly drawn)
IC50 (HeLa): 306 nM
IC50 (U-87 MG [1]): 144 nM
IC50 (MCF7): 70.4 nM
IC50 (A549): 344 nM

CN1c2ccc(F)cc2C(=O)N2CCc3c([nH]c4ccc(OC(=O)CCSSCCC(=O)NC[C@@H]5NC(=O)[C@H](Cc6ccccc6)NC(=O)[C@H](CC(=O)O)NC(=O)CNC(=O)[C@H](CCCNC(=N)N)NC5=O)cc34)C21 (stereo partly drawn)
IC50 (HeLa): 282 nM
IC50 (U-87 MG [1]): 406 nM
IC50 (MCF7): 138 nM
IC50 (A549): > 500 nM

CN1c2ccc(F)cc2C(=O)N2CCc3c([nH]c4ccc(OC(=O)CCSSCCC(=O)NCCC[C@@H]5NC(=O)[C@H](Cc6ccccc6)NC(=O)[C@H](CC(=O)O)NC(=O)CNC(=O)[C@H](CCCNC(=N)N)NC5=O)cc34)C21 (stereo partly drawn)
IC50 (HeLa): 322 nM
IC50 (U-87 MG [1]): > 500 nM
IC50 (MCF7): 205 nM
IC50 (A549): > 500 nM
